In the experiment the test system is Acinetobacter baumannii. Nature of the experiment: Antibacterial activity against Acinetobacter baumannii ATCC 17978 after 24 to 48 hrs in presence of iron chelator 2,2'-dipyridyl by CLSI method. In kind it is functional.

As to `O=C(COc1ccccc1Cl)Nc1nonc1-c1ccccc1`, the MIC (usually the smallest concentration in the dilution series that meets the test's criterion for growth inhibition) is more than 4000 µM.
With `Cc1nonc1NC(=O)c1ccc2ccccc2c1` the figure was 4000 µM.
The result for `Cc1nonc1NC(=O)CSC1=NCCS1` reads 2000 µM; that for `Cc1nonc1NC(=O)CSc1ccc2ccccc2c1`, more than 4000 µM; that for `Cc1nonc1NC(=O)c1cccc2ccccc12`, 1000 µM.
On to `Cc1nonc1NC(=O)CSc1ccccn1`, for which the MIC turned out to be 2000 µM.
With `CCCc1nonc1NC(=O)/C=C/c1ccccc1` the figure was more than 4000 µM.
The result for `Cc1nonc1NC(=O)CSc1ccccc1` reads 1000 µM.
With `Cc1ccnc(SCC(=O)Nc2nonc2C)n1` the figure was 4000 µM; with `O=C(CCc1ccccc1)Nc1nonc1-c1ccccc1`, more than 4000 µM; with `Cc1nonc1NC(=O)/C=C/c1ccccc1`, 1000 µM.
As to `Cc1nonc1NC(=O)/C=C/c1ccc(O)c(O)c1`, the MIC was more than 4000 µM.
The result for `COc1ccc(CCC(=O)Nc2nonc2C)cc1` reads 2000 µM.
For `Cc1nonc1NC(=O)CSc1nc2ccccc2[nH]1`, the MIC turned out to be 2000 µM.
With `Cc1nonc1NC(=O)/C=C/c1ccccc1O` the figure was 500 µM; with `Cc1nonc1NC(=O)CCc1ccccc1`, 1000 µM.
With `Cc1nonc1NC(=O)COc1cccc(Cl)c1Cl` the figure was more than 4000 µM; with `Cc1nonc1NC(=O)COc1ccccc1`, 2000 µM.
As for `CC(=O)Oc1ccc(/C=C/C(=O)Nc2nonc2C)cc1OC(C)=O`, the MIC was 4000 µM.
With `Cc1nonc1NC(=O)CSc1nc2ccccc2s1` the figure was more than 4000 µM; with `Cc1nonc1NC(=O)COc1ccc(Cl)c(Cl)c1`, 1000 µM; with `O=C(CSc1ccccc1)Nc1nonc1-c1ccccc1`, more than 4000 µM.
With `Cc1nonc1NC(=O)COc1ccc(Cl)cc1` the figure was 1000 µM.
With `Cc1nonc1NC(=O)CN(CC(=O)Nc1nonc1C)c1ccccc1` the figure was more than 4000 µM; with `O=C(COc1ccccc1)Nc1nonc1-c1ccccc1`, more than 4000 µM; with `CC(=O)Oc1ccccc1/C=C/C(=O)Nc1nonc1C`, 2000 µM.
`CCCc1nonc1NC(=O)CCc1ccccc1`: the MIC is 1000 µM.
With `Cc1nonc1NC(=O)COc1ccccc1Cl` the figure was more than 4000 µM; with `Cc1nonc1NC(=O)CSc1ncccn1`, 4000 µM.
The result for `O=C(/C=C/c1ccccc1)Nc1nonc1-c1ccccc1` reads more than 4000 µM; that for `Cc1nonc1NC(=O)COc1cccc2ccccc12`, more than 4000 µM.

(Values after ChEMBL document CHEMBL4177606, “Synthesis of novel 1,2,5-oxadiazoles and evaluation of action against Acinetobacter baumannii” (2017).)
